Measurements: patent US11471537B2, “Oligomer extended insulin-Fc conjugates” (Novo Nordisk A/S, priority 2017, dated 2022)

Experiments:
Sprague-Dawley rats = experiment: PD studies: blood glucose after subcutaneous dosing; assay type: in vivo; details: sc, dose 30 nmol/kg
Method: The pharmacodynamic effect of the Insulin Fc conjugates of the examples were investigated in normal male Sprague-Dawley rats weighing approx. 350 g at study start.
Animals had free access to food and water during the experiment period. They were dosed subcutaneously in the neck region with a dose of 30 nmol/kg (unless otherwise stated in the figures below). Blood samples for blood glucose and plasma insulin analysis were collected from the tongue veins up to 10 days post dosing. Blood glucose was measured using Biosen S Line (EKF).

insulin receptor A = insulin receptor A (Homo sapiens, UniProt P06213); experiment: Insulin receptor affinity; assay type: binding; details: relative to affinity of human insulin for insulin receptor A (100%)
Sequence of insulin receptor A (P06213 28-1370 isoform P06213-2 limits assumed): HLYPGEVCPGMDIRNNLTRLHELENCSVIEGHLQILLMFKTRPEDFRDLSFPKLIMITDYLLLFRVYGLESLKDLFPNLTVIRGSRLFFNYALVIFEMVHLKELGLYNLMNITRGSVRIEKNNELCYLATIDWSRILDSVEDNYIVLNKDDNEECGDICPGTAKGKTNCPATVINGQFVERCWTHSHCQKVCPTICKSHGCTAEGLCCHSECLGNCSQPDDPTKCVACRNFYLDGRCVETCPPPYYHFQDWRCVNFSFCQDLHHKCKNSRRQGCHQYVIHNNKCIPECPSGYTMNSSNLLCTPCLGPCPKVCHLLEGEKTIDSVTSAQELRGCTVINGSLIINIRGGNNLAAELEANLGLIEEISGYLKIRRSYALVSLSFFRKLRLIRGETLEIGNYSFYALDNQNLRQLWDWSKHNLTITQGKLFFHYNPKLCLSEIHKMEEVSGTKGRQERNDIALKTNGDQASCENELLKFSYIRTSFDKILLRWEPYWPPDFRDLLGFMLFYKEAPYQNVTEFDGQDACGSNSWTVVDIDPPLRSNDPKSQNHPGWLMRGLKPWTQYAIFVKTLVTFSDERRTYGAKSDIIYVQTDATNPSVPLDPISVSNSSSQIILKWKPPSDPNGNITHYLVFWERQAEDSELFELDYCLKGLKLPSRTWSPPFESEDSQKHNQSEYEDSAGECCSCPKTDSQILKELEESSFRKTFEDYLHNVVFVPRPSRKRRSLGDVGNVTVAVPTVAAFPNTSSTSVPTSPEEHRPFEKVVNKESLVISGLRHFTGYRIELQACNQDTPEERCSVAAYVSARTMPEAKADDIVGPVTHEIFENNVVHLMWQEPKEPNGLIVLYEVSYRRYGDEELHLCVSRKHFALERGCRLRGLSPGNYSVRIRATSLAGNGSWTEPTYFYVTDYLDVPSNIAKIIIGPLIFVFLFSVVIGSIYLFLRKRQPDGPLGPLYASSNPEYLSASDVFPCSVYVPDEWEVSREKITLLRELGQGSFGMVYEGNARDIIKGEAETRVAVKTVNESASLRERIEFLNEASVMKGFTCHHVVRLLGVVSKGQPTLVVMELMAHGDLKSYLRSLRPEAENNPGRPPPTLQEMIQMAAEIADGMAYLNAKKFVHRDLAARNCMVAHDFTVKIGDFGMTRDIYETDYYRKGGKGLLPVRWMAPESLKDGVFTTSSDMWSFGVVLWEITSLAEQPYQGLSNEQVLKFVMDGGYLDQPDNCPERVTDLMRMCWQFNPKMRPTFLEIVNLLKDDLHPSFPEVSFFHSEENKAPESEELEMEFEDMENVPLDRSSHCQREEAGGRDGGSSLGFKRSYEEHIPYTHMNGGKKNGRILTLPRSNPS
Sequence of insulin receptor A (P06213 763-1382 partner limits assumed): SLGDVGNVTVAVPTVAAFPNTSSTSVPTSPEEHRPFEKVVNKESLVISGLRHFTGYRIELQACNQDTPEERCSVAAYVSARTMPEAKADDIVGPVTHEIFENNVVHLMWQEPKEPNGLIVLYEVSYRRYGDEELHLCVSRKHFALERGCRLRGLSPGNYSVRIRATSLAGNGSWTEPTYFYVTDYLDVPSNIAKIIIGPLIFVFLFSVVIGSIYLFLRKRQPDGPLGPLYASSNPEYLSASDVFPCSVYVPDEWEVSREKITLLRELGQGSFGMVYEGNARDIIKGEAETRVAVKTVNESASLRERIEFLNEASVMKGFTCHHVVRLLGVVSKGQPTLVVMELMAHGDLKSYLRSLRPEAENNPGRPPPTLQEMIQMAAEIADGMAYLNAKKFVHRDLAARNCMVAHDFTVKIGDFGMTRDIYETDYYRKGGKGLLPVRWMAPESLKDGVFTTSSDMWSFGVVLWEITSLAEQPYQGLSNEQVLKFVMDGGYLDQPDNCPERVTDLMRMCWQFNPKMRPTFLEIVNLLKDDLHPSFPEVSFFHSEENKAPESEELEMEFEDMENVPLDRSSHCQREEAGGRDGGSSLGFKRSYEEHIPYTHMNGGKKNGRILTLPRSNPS

[1] = PK studies: intravenous and subcutaneous administration to SD rats, insulin-Fc concentrations by immuno-assay; assay type: in vivo; details: for PK rat sc [T½ (h)] Mean Value: subcutaneous
Method: Insulin-Fc conjugates were tested in vivo by intravenous and subcutaneous administration to SD rats. Blood samples were collected and the insulin-Fc concentrations were measured by immuno-assay.

isolated rat adipocytes = experiment: Insulin-stimulated lipogenesis; assay type: cell-based; details: 1% HSA; relative to the activity of human insulin (100%)
Method: Insulin-stimulated lipogenesis was measured in isolated rat adipocytes in presence of 1% HSA as described in Moody A J, Stan M A, Stan M, Gliemann J. A Simple Free Fat Cell Bioassay for Insulin. Hormone And Metabolic Research. 1974; 6(1):12-6, see results in Table 6.

Substance	Average blood glucose (Sprague-Dawley rats; time 0 days) [mM]	Average blood glucose (Sprague-Dawley rats; time 0.041667 days) [mM]	Average blood glucose (Sprague-Dawley rats; time 0.125 days) [mM]	Average blood glucose (Sprague-Dawley rats; time 0.291667 days) [mM]	Average blood glucose (Sprague-Dawley rats; time 1 day) [mM]	Average blood glucose (Sprague-Dawley rats; time 2 days) [mM]	Average blood glucose (Sprague-Dawley rats; time 3 days) [mM]	Average blood glucose (Sprague-Dawley rats; time 4 days) [mM]	Average blood glucose (Sprague-Dawley rats; time 5 days) [mM]	Average blood glucose (Sprague-Dawley rats; time 6 days) [mM]	Average blood glucose (Sprague-Dawley rats; time 7 days) [mM]	Average blood glucose (Sprague-Dawley rats; time 8 days) [mM]	Average blood glucose (Sprague-Dawley rats; time 9 days) [mM]	Average blood glucose (Sprague-Dawley rats; time 10 days) [mM]	Insulin receptor affinity [IC50 relative to HI (%)] Mean Value (insulin receptor A) [%]	PK rat iv [T½ (h)] Mean Value [1] [h]	PK rat sc [T½ (h)] Mean Value [1] [h]	Lipogenesis in rat adipocytes [Potency (%)] Mean Value (isolated rat adipocytes) [%]
(A1(N(alpha)acetyl), A14E, A21G, A22(GQAP)19, A98K^, A99P, B1(N(alpha)acetyl), B25H, B29R, desB30 human insulin)/(227A, 234A, 235K, 297E, 315Q, 384Q, des447 hIgG4-Fc(228-447))4-[bis[2-[(2-acetyl)amino]ethyl]amino]-4-oxo-butanoyl Conjugate [Example 5.27]	5.504	6.308	5.72	5.164	3.036	3.852	4.384	5.272	5.236	5.564	5.824	5.924	5.68	6.12	1.07	40.7	50.4	–
A14E, B(−78K^), B(−77P), B(−1)(GQAP)19, B25H, B29R, desB30 human insulin/(227A, 234A, 235K, 297E, 315Q, 384Q, des447 hIgG4-Fc(228-447))4-[bis[2-[(2-acetyl)amino]ethyl]amino]-4-oxo-butanoyl Conjugate [Example 5.18]	–	–	–	–	–	–	–	–	–	–	–	–	–	–	2.78	24.9	28.0	0.87
A14E, B(−78K^), B(−77P), B(−1)(GQAPGQAPGQEP)6-GQAP, B3Q, B25H, B29R, desB30 human insulin/(227A, 234A, 235K hIgG4-Fc(228-447))4-[bis[2-[(2-acetyl)amino]ethyl]amino]-4-oxo-butanoyl Conjugate [Example 5.3]	–	–	–	–	–	–	–	–	–	–	–	–	–	–	2.57	35.6	33.1	0.55
A14E, B(−78K^), B(−77P), B(−1)(GQEP)19, B25H, B29R, desB30 human insulin/(227A, 234A, 235K hIgG4-Fc(228-447))4-[bis[2-[(2-acetyl)amino]ethyl]amino]-4-oxo-butanoyl Conjugate [Example 5.4]	–	–	–	–	–	–	–	–	–	–	–	–	–	–	2.14	26.4	32.2	0.36
A14E, B(−78K^), B(−77P), B(−1)(GQEP)19, B25H, B29R, desB30 human insulin/(227A, 234A, 235K, 297E, 315Q, 384Q, des447 hIgG4-Fc(228-447))4-[bis[2-[(2-acetyl)amino]ethyl]amino]-4-oxo-butanoyl Conjugate [Example 5.11]	–	–	–	–	–	–	–	–	–	–	–	–	–	–	1.72	30.7	33.1	0.39
